From US7914827B2, “Use of extracts or extractants of the guajacum types, said extracts or extractants bringing about phosphodiesterase-4 inhibition and method for producing the same” (Max Zeller Soehne AG, priority 2006, dated 2011)

Biological target: human phosphodiesterase-5 (PDE5) (Homo sapiens, UniProt O76074)
Assay: PDE5 assay (3H-cGMP as tracer)
Assay type: biochemical
Settings: read-out: Inhibitory activity [%], PDE5

CCCc1nn(C)c2c(=O)[nH]c(-c3cc(S(=O)(=O)N4CCN(C)CC4)ccc3OCC)nc12 [Sildenafil]
inhibition at 1 pM: 5% | inhibition at 0.0001 µM: 21% | inhibition at 0.01 µM: 52% | inhibition at 1 µM: 74%
